Counter-ions that a name gives are not always drawn.

The test system of one experiment is up-regulation of ICAM-1 (CD54) by IFNγ in U937 human monocytic cells. The experiment in a line: U937 IFNγ ICAM1 FACS Assay. The conditions noted are these: Homo sapiens, U-937, U937 cells stimulated with IFNγ, ICAM-1 expression by FACS; read-out: IC50, Example 44. It is filed as cell-based. The method, boiled down:
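U937 cells in 10% FCS RPMI were preincubated 30 min at 37 °C with an 8-point, 3-fold compound dilution series in duplicate, then stimulated with IFNγ for 18–24 h. Surface ICAM-1 was stained with APC anti-ICAM-1 and read by flow cytometry as geometric mean on live-gated cells. EC50 was derived.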
Background: In flow cytometry, cells or beads pass a laser one at a time.
One may read the IC50 as the point on the concentration scale where inhibition reaches its midpoint. As for `Cc1cc(Nc2nc(Nc3ccc(S(N)(=O)=O)cc3)ncc2F)cc(C)c1N1CCN(C)CC1` [IX-44, N2-(4-Aminosulfonylphenyl)-N4-[3,5-dimethyl-4-(4-methylpiperazin-1-yl]phenyl)-5-fluoro-2,4-pyrimidinediamine], the IC50 worked out at 2940 nM.

The same experiment, now with this note: U937 cells stimulated with IFNγ; ICAM-1 expression by FACS; read-out: IC50, Example 44.
Turning to `COc1ccc(Nc2ncc(F)c(Nc3ccc(CN4CCSCC4)cc3)n2)cc1S(N)(=O)=O` [III-109, N2-(3-Aminosulfonyl-4-methyoxyphenyl)-5-fluoro-N4-(4-thiomorpholinomethylenephenyl)-2,4-pyrimidinediamine], the IC50 turned out to be 531 nM.

For the compound `NS(=O)(=O)c1cccc(Nc2ncc(F)c(Nc3ccc(CN4CCS(=O)(=O)CC4)cc3)n2)c1` [III-110, N2-(3-Aminosulfonylphenyl)-5-fluoro-N4-{4-[(1,1-dioxothiomorpholin-4-yl-)methyl]phenyl}-2,4-pyrimidinediamine], the IC50 stood at 13600 nM.

Consider `Cc1ccc(Nc2ncc(F)c(Nc3ccc(CN4CCS(=O)(=O)CC4)cc3)n2)cc1S(N)(=O)=O` [III-111, N2-(3-Aminosulfonyl-4-methylphenyl)-5-fluoro-N4-{4-[(1,1-dioxothiomorpholin-4-yl-)methyl]phenyl}-2,4-pyrimidinediamine], for which the half-inhibitory concentration (IC50) stood at 5340 nM.

`NS(=O)(=O)c1cccc(Nc2ncc(F)c(Nc3ccc(Cc4ccncc4)cc3)n2)c1` [III-129, N2-(3-Aminosulfonylphenyl)-5-fluoro-N4-[4-(4-pyridylmethyl)phenyl]-2,4-pyrimidinediamine Methanesulfonic Acid Salt]: the IC50 came out at 1190 nM.

For `CNS(=O)(=O)c1cc(Nc2ncc(F)c(Nc3cccc(-c4cnco4)c3)n2)ccc1C` [IV-4, 5-Fluoro-N2-[3-(N-methylaminosulfony)-4-methylphenyl]-N4-[3-(1,3-oxazol-5-yl)phenyl]-2,4-pyrimidinediamine], the IC50 was 2420 nM.

Take `CNS(=O)(=O)c1cc(Nc2ncc(F)c(Nc3ccc(-c4cnco4)cc3)n2)ccc1C` [IV-7, 5-Fluoro-N2-[3-(N-methylaminosulfony)-4-methylphenyl]-N4-[4-(1,3-oxazol-5-yl)phenyl]-2,4-pyrimidinediamine]: the IC50 amounted to 1240 nM.

On to `COc1ccc(Nc2nc(Nc3cccc(S(=O)(=O)NN4CCC(C)CC4)c3)ncc2F)cc1Cl` [VI-9, N4-(3-Chloro-4-methoxyphenyl)-5-fluoro-N2-[3-(4-methylpipendin-1-yl)aminosulfonylphenyl]-2,4-pyrimidinediamine], for which the IC50 stood at 14500 nM.
